# Patent publication US11752180B2, “Intestinal protectant” (National University Corporation Asahikawa Medical University, priority 2010, dated 2023)
# Where no end group is shown, it is not given here.
# Test system: integrin (integrin β)
# Test: Interaction between polyphosphoric acid and integrin: mannitol ex vivo loop assay with peptide antagonist of integrin
# Set-up: species or system mouse
# Method: Using a peptide antagonist of integrin, the interaction between polyphosphoric acid and integrin was analyzed. For the peptide antagonist of integrin, the peptide having the amino acid sequence of Gly-Arg-Gly-Asp-Thr-Pro (GRGDTP) (hereinafter also referred to as “GRGDTP”) was used. GRGDTP has the sequence of Arg-Gly-Asp (RGD), which is recognized by integrin β.
# The intestinal tract permeability experiment on mannitol by ex vivo loop assay was carried out in the same manner as in Example 9 and Example 11 except that GRGDTP was added in a concentration of 100 μg/ml, in addition to the enzymatically synthesized polyphosphoric acid or the chemically synthesized polyphosphoric acid, to the PBS solution to be filled in the intestinal tract, and the intestinal tract barrier function was evaluated.
substance,measurement,setting,value
GRGDTP [peptide antagonist of integrin],effect of GRGDTP on the intestinal tract barrier effect of chemically synthesized polyphosphoric acid (mannitol leakage),GRGDTP 100 μg/ml in combination with chemically synthesized polyphosphoric acid,had the same result
same,effect of GRGDTP on the intestinal tract barrier effect of enzymatically synthesized polyphosphoric acid (mannitol leakage),GRGDTP 100 μg/ml in combination with enzymatically synthesized polyphosphoric acid,remarkably inhibited
